28 compounds from patent US10442803B2, “Tricyclic heterocycles as bet protein inhibitors” (Incyte Corporation, priority 2013, dated 2019) can be followed below.

One may read the IC50 as the concentration needed to halve the response being measured.

For this assay, the system named is KMS.12.BM cells. Put plainly: KMS.12.BM cell viability assay. The format is cell-based. Particulars: 72 h; KMS.12.BM human myeloma cells, 3 days, Cell Titer-GLO ATP quantitation; read-out: KMS cellular IC50. Summed up: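 Human myeloma KMS.12.BM cells, 5000 per well in RPMI/10% FBS, exposed 3 days to compound concentration range. Viability from ATP-based Cell Titer-GLO luminescence; IC50 derived.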
Background: Cellular ATP, detected with luciferase, serves as a proxy for viable cell number.

Structures are written as SMILES. Counter-ions that a name gives are not always drawn.

As to `CNC(=O)Nc1cc2c(cc(C)n2Cc2cc(Cl)cc(CN3CCCC3)c2)n2c(C)nnc12` [Example 142, N-{6-[3-Chloro-5-(pyrrolidin-1-ylmethyl)benzyl]-1,7-dimethyl-6H-pyrrolo[2,3-e][1,2,4]triazolo[4,3-a]pyridin-4-yl}-N′-methylurea bis(trifluoroacetate) salt], the IC50 was at most 1000 nM.

As for `Cc1nnc2ccc3c(cc(-c4ncco4)n3Cc3ccccc3)n12` [Example 143, 6-benzyl-1-methyl-7-(1,3-oxazol-2-yl)-6H-pyrrolo[2,3-e][1,2,4]triazolo[4,3-a]pyridine trifluoroacetate salt], the 50% inhibitory concentration (IC50) is at most 1000 nM. As for `Cc1cc2c(cc(NC3CCOCC3)c3nnc(C)n32)n1Cc1ccccc1` [Example 146, 6-benzyl-1,7-dimethyl-N-(tetrahydro-2H-pyran-4-yl)-6H-pyrrolo[2,3-e][1,2,4]triazolo[4,3-a]pyridin-4-amine], the 50% inhibitory concentration (IC50) fell in the range of 1000 to 10000 nM.

On to `Cc1cc2c(cc(N[C@@H]3CCOC3)c3nnc(C)n32)n1Cc1ccccc1` [Example 147, 6-benzyl-1,7-dimethyl-N-[(3R)-tetrahydrofuran-3-yl]-6H-pyrrolo[2,3-e][1,2,4]triazolo[4,3-a]pyridin-4-amine], for which the IC50 is 1000 to 10000 nM. Next, `Cc1cc2c(cc(N[C@H]3CCOC3)c3nnc(C)n32)n1Cc1ccccc1` [Example 148, 6-benzyl-1,7-dimethyl-N-[(3S)-tetrahydrofuran-3-yl]-6H-pyrrolo[2,3-e][1,2,4]triazolo[4,3-a]pyridin-4-amine]: 1000 to 10000 nM; `Cc1cc2c(cc(N[C@@H]3CCN(C(=O)OC(C)(C)C)C3)c3nnc(C)n32)n1Cc1ccccc1` [Example 149, tert-butyl (3R)-3-[(6-benzyl-1,7-dimethyl-6H-pyrrolo[2,3-e][1,2,4]triazolo[4,3-a]pyridin-4-yl)amino]pyrrolidine-1-carboxylate]: 1000 to 10000 nM; `Cc1cc2c(cc(N[C@H]3CCN(C(=O)OC(C)(C)C)C3)c3nnc(C)n32)n1Cc1ccccc1` [Example 150, tert-butyl (3S)-3-[(6-benzyl-1,7-dimethyl-6H-pyrrolo[2,3-e][1,2,4]triazolo[4,3-a]pyridin-4-yl)amino]pyrrolidine-1-carboxylate]: 1000 to 10000 nM.

Regarding `Cc1cc2c(cc(N[C@@H]3CCNC3)c3nnc(C)n32)n1Cc1ccccc1` [Example 151, 6-benzyl-1,7-dimethyl-N-[(3R)-pyrrolidin-3-yl]-6H-pyrrolo[2,3-e][1,2,4]triazolo[4,3-a]pyridin-4-amine bis(trifluoroacetate) salt], the IC50 is at most 1000 nM. Next, `Cc1cc2c(cc(N[C@H]3CCNC3)c3nnc(C)n32)n1Cc1ccccc1` [Example 152, 6-benzyl-1,7-dimethyl-N-[(3S)-pyrrolidin-3-yl]-6H-pyrrolo[2,3-e][1,2,4]triazolo[4,3-a]pyridin-4-amine bis(trifluoroacetate) salt]: at most 1000 nM. Next, `Cc1cc2c(cc(NC3CCN(C)CC3)c3nnc(C)n32)n1Cc1ccccn1` [Example 153, 1,7-dimethyl-N-(1-methylpiperidin-4-yl)-6-(pyridin-2-ylmethyl)-6H-pyrrolo[2,3-e][1,2,4]triazolo[4,3-a]pyridin-4-amine]: at most 1000 nM; `Cc1cc2c(cc(NC3CCN(C)CC3)c3nnc(C)n32)n1Cc1cccnc1` [Example 154, 1,7-dimethyl-N-(1-methylpiperidin-4-yl)-6-(pyridin-3-ylmethyl)-6H-pyrrolo[2,3-e][1,2,4]triazolo[4,3-a]pyridin-4-amine]: at most 1000 nM; `Cc1nnc2ccc3c(cc(-c4ccn[nH]4)n3Cc3cccc(Cl)c3)n12` [Example 155, 6-(3-chlorobenzyl)-1-methyl-7-(1H-pyrazol-5-yl)-6H-pyrrolo[2,3-e][1,2,4]triazolo[4,3-a]pyridine bis(trifluoroacetate) salt]: at most 1000 nM. Consider `CCN1CC(CC#N)(n2ccc(-c3cc4c(ccc5nnc(C)n54)n3Cc3cccc(Cl)c3)n2)C1` [Example 158, (3-{3-[6-(3-Chlorobenzyl)-1-methyl-6H-pyrrolo[2,3-e][1,2,4]triazolo[4,3-a]pyridin-7-yl]-1H-pyrazol-1-yl}-1-ethylazetidin-3-yl)acetonitrile bis(trifluoroacetate) salt], for which the IC50 is at most 1000 nM. Next, `Cc1nnc2ccc3c(cc(-c4ccn(CCC(N)=O)n4)n3Cc3cccc(Cl)c3)n12` [Example 159, 3-{3-[6-(3-Chlorobenzyl)-1-methyl-6H-pyrrolo[2,3-e][1,2,4]triazolo[4,3-a]pyridin-7-yl]-1H-pyrazol-1-yl}propanamide trifluoroacetate salt]: at most 1000 nM; `CCN1CC(n2ccc(-c3cc4c(ccc5nnc(C)n54)n3Cc3cccc(Cl)c3)n2)C1` [Example 160, 6-(3-Chlorobenzyl)-7-[1-(1-ethylazetidin-3-yl)-1H-pyrazol-3-yl]-1-methyl-6H-pyrrolo[2,3-e][1,2,4]triazolo[4,3-a]pyridine bis(trifluoroacetate) salt]: at most 1000 nM; `Cc1nnc2ccc3c(cc(-c4ccn(C5CN(S(=O)(=O)N(C)C)C5)n4)n3Cc3cccc(Cl)c3)n12` [Example 161, 3-{3-[6-(3-Chlorobenzyl)-1-methyl-6H-pyrrolo[2,3-e][1,2,4]triazolo[4,3-a]pyridin-7-yl]-1H-pyrazol-1-yl}-N,N-dimethylazetidine-1-sulfonamide bis(trifluoroacetate) salt]: at most 1000 nM. Take `Cc1nnc2ccc3c(cc(-c4ccn(C5CN(C(=O)CN(C)C)C5)n4)n3Cc3cccc(Cl)c3)n12` [Example 162, 2-(3-{3-[6-(3-Chlorobenzyl)-1-methyl-6H-pyrrolo[2,3-e][1,2,4]triazolo[4,3-a]pyridin-7-yl]-1H-pyrazol-1-yl}azetidin-1-yl)-N,N-dimethyl-2-oxoethanamine bis(trifluoroacetate) salt]: the IC50 is at most 1000 nM. The result for `CCC(=O)N1CC(n2ccc(-c3cc4c(ccc5nnc(C)n54)n3Cc3cccc(Cl)c3)n2)C1` [Example 163, 6-(3-Chlorobenzyl)-1-methyl-7-[1-(1-propionylazetidin-3-yl)-1H-pyrazol-3-yl]-6H-pyrrolo[2,3-e][1,2,4]triazolo[4,3-a]pyridine trifluoroacetate salt] reads at most 1000 nM; that for `Cc1nnc2ccc3c(cc(-c4ccn(C5CN(C(=O)C6CC6)C5)n4)n3Cc3cccc(Cl)c3)n12` [Example 164, 6-(3-Chlorobenzyl)-7-{1-[1-(cyclopropylcarbonyl)azetidin-3-yl]-1H-pyrazol-3-yl}-1-methyl-6H-pyrrolo[2,3-e][1,2,4]triazolo[4,3-a]pyridine trifluoroacetate salt], at most 1000 nM; that for `Cc1nnc2ccc3c(cc(-c4ccn(C5CN(S(=O)(=O)C6CC6)C5)n4)n3Cc3cccc(Cl)c3)n12` [Example 165, 6-(3-Chlorobenzyl)-7-{1-[1-(cyclopropylsulfonyl)azetidin-3-yl]-1H-pyrazol-3-yl}-1-methyl-6H-pyrrolo[2,3-e][1,2,4]triazolo[4,3-a]pyridine trifluoroacetate salt], at most 1000 nM.

Turning to `CCS(=O)(=O)N1CC(n2ccc(-c3cc4c(ccc5nnc(C)n54)n3Cc3cccc(Cl)c3)n2)C1` [Example 166, 6-(3-Chlorobenzyl)-7-{1-[1-(ethylsulfonyl)azetidin-3-yl]-1H-pyrazol-3-yl}-1-methyl-6H-pyrrolo[2,3-e][1,2,4]triazolo[4,3-a]pyridine trifluoroacetate salt], the half-maximal inhibitory concentration (IC50) is at most 1000 nM.

For the compound `CCOC(=O)N1CC(n2ccc(-c3cc4c(ccc5nnc(C)n54)n3Cc3cccc(Cl)c3)n2)C1` [Example 167, Ethyl 3-{3-[6-(3-chlorobenzyl)-1-methyl-6H-pyrrolo[2,3-e][1,2,4]triazolo[4,3-a]pyridin-7-yl]-1H-pyrazol-1-yl}azetidine-1-carboxylate trifluoroacetate salt], the IC50 was at most 1000 nM. On to `Cc1nnc2ccc3c(cc(-c4ccn(CCC(=O)NC5COC5)n4)n3Cc3cccc(Cl)c3)n12` [Example 168, 3-{3-[6-(3-Chlorobenzyl)-1-methyl-6H-pyrrolo[2,3-e][1,2,4]triazolo[4,3-a]pyridin-7-yl]-1H-pyrazol-1-yl}-N-oxetan-3-ylpropanamide trifluoroacetate salt], for which the IC50 was at most 1000 nM. Consider `Cc1nnc2ccc3c(cc(-c4ccn(CCC(=O)N5CCOCC5)n4)n3Cc3cccc(Cl)c3)n12` [Example 169, 6-(3-Chlorobenzyl)-1-methyl-7-[1-(3-morpholin-4-yl-3-oxopropyl)-1H-pyrazol-3-yl]-6H-pyrrolo[2,3-e][1,2,4]triazolo[4,3-a]pyridine trifluoroacetate salt], for which the IC50 is at most 1000 nM.

Consider `Cc1nnc2ccc3c(cc(-c4ccn(CCC(=O)NC5CCOCC5)n4)n3Cc3cccc(Cl)c3)n12` [Example 170, 3-{3-[6-(3-Chlorobenzyl)-1-methyl-6H-pyrrolo[2,3-e][1,2,4]triazolo[4,3-a]pyridin-7-yl]-1H-pyrazol-1-yl}-N-(tetrahydro-2H-pyran-4-yl)propanamide trifluoroacetate salt], for which the IC50 was at most 1000 nM. Regarding `Cc1nnc2ccc3c(cc(-c4ccn(CCC(=O)NC5CN(C)C5)n4)n3Cc3cccc(Cl)c3)n12` [Example 171, 3-{3-[6-(3-Chlorobenzyl)-1-methyl-6H-pyrrolo[2,3-e][1,2,4]triazolo[4,3-a]pyridin-7-yl]-1H-pyrazol-1-yl}-N-(1-methylazetidin-3-yl)propanamide bis(trifluoroacetate) salt], the IC50 is at most 1000 nM. The result for `Cc1nnc2ccc3c(cc(-c4c[nH]cn4)n3Cc3cccc(Cl)c3)n12` [Example 172, 6-(3-Chlorobenzyl)-7-(1H-imidazol-4-yl)-1-methyl-6H-pyrrolo[2,3-e][1,2,4]triazolo[4,3-a]pyridine bis(trifluoroacetate) salt] reads at most 1000 nM; that for `Cc1nnc2ccc3c(cc(-c4ccn(CCCO)n4)n3Cc3cccc(Cl)c3)n12` [Example 173, 3-{3-[6-(3-Chlorobenzyl)-1-methyl-6H-pyrrolo[2,3-e][1,2,4]triazolo[4,3-a]pyridin-7-yl]-1H-pyrazol-1-yl}propan-1-ol trifluoroacetate salt], at most 1000 nM.
